# Source: PubChem BioAssay AID2060347 (Molecular Pharmacology Branch, DTP, NCI, 2025)
# System: 817829-284-R-J1-PDC spheroids with HUVEC/MSC, viability
# Experiment: Anticancer human tumor 817829-284-R-J1-PDC patient-derived colon adenocarcinoma cell line growth inhibition [TAK]
# Conditions: for IC50: curve of first compound; for viability, T/C: stronger effect = lower value
# Method in brief: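 Spheroids of 60% malignant cells, 25% HUVEC and 15% hMSC were exposed to targeted agents combined with TAK-243 or ipatasertib. Concentrations started at or near clinical Cmax (10 microM if unknown) and descended in half-log steps.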
# [1] = second compound 0.3 µM, first compound 0.0316 µM
# [2] = second compound 0.3 µM, first compound 0.1 µM
# [3] = second compound 0.3 µM, first compound 0.316 µM
# [4] = second compound 0.3 µM, first compound 1 µM
# [5] = second compound 0.949 µM, first compound 0.0316 µM
# [6] = second compound 0.949 µM, first compound 0.1 µM
# [7] = second compound 0.949 µM, first compound 0.316 µM
# [8] = second compound 0.949 µM, first compound 1 µM
# [9] = second compound 3 µM, first compound 0.0316 µM
# [10] = second compound 3 µM, first compound 0.1 µM
# [11] = second compound 3 µM, first compound 0.316 µM
# [12] = second compound 3 µM, first compound 1 µM
# [13] = second compound 9.49 µM, first compound 0.0316 µM
# [14] = second compound 9.49 µM, first compound 0.1 µM
# [15] = second compound 9.49 µM, first compound 0.316 µM
# [16] = second compound 9.49 µM, first compound 1 µM
# [17] = second compound 30 µM, first compound 0.0316 µM
# [18] = second compound 30 µM, first compound 0.1 µM
# [19] = second compound 30 µM, first compound 0.316 µM
# [20] = second compound 30 µM, first compound 1 µM
# [21] = second compound 0.3 µM, first compound 0.00316 µM
# [22] = second compound 0.3 µM, first compound 0.01 µM
# [23] = second compound 0.949 µM, first compound 0.00316 µM
# [24] = second compound 0.949 µM, first compound 0.01 µM
# [25] = second compound 3 µM, first compound 0.00316 µM
# [26] = second compound 3 µM, first compound 0.01 µM
# [27] = second compound 9.49 µM, first compound 0.00316 µM
# [28] = second compound 9.49 µM, first compound 0.01 µM
# [29] = second compound 30 µM, first compound 0.00316 µM
# [30] = second compound 30 µM, first compound 0.01 µM
# [31] = second compound 0.3 µM, first compound 0.000316 µM
# [32] = second compound 0.3 µM, first compound 0.001 µM
# [33] = second compound 0.949 µM, first compound 0.000316 µM
# [34] = second compound 0.949 µM, first compound 0.001 µM
# [35] = second compound 3 µM, first compound 0.000316 µM
# [36] = second compound 3 µM, first compound 0.001 µM
# [37] = second compound 9.49 µM, first compound 0.000316 µM
# [38] = second compound 9.49 µM, first compound 0.001 µM
# [39] = second compound 30 µM, first compound 0.000316 µM
# [40] = second compound 30 µM, first compound 0.001 µM
Structure (SMILES),IC50 (second compound 0.3 µM) [nM],IC50 (second compound 0.949 µM) [nM],IC50 (second compound 3 µM) [nM],IC50 (second compound 9.49 µM) [nM],IC50 (second compound 30 µM) [nM],"viability, T/C [1] [%]","viability, T/C [2] [%]","viability, T/C [5] [%]","viability, T/C [6] [%]","viability, T/C [9] [%]","viability, T/C [10] [%]","viability, T/C [13] [%]","viability, T/C [14] [%]","viability, T/C [17] [%]","viability, T/C [18] [%]","viability, T/C [21] [%]","viability, T/C [22] [%]","viability, T/C [23] [%]","viability, T/C [24] [%]","viability, T/C [25] [%]",further results
CC(C)(C)c1nc(-c2cccc(NS(=O)(=O)c3c(F)cccc3F)c2F)c(-c2ccnc(N)n2)s1 + CC(C)NCC(C(=O)N1CCN(c2ncnc3c2C(C)CC3O)CC1)c1ccc(Cl)cc1,110,< 31.6,< 31.6,< 31.6,< 31.6,77.1,52.1,27.6,31.9,15.9,16.9,9.35,10.3,5.5,5.14,–,–,–,–,–,"viability, T/C [3]: 27.6%; viability, T/C [4]: 18%; viability, T/C (second compound 0.3 µM, first compound 3.16 µM): 20%; viability, T/C (second compound 0.3 µM, first compound 10 µM): 40.6%; viability, T/C [7]: 22.4%; viability, T/C [8]: 15.3%; viability, T/C (second compound 0.949 µM, first compound 3.16 µM): 15.6%; viability, T/C (second compound 0.949 µM, first compound 10 µM): 20.1%; viability, T/C [11]: 13.4%; viability, T/C [12]: 11.1%; viability, T/C (second compound 3 µM, first compound 3.16 µM): 11%; viability, T/C (second compound 3 µM, first compound 10 µM): 13.7%; viability, T/C [15]: 9.8%; viability, T/C [16]: 7.09%; viability, T/C (second compound 9.49 µM, first compound 3.16 µM): 6.36%; viability, T/C (second compound 9.49 µM, first compound 10 µM): 9.46%; viability, T/C [19]: 5.38%; viability, T/C [20]: 3.29%; viability, T/C (second compound 30 µM, first compound 3.16 µM): 3.24%; viability, T/C (second compound 30 µM, first compound 10 µM): 4.85%"
COc1c(OCCCN2CCOCC2)ccc2c3n(c(=NC(=O)c4cnc(N)nc4)nc12)CCN3 + CC(C)NCC(C(=O)N1CCN(c2ncnc3c2C(C)CC3O)CC1)c1ccc(Cl)cc1,8.27,< 3.16,< 3.16,< 3.16,< 3.16,23.3,8.89,8.85,4.57,3.03,2.24,2.03,2.04,1.37,1.05,64.6,47,20.2,10.4,7.34,"viability, T/C [3]: 2.93%; viability, T/C [4]: 2.83%; viability, T/C [7]: 1.95%; viability, T/C [8]: 1.97%; viability, T/C [26]: 4.51%; viability, T/C [11]: 1.67%; viability, T/C [12]: 1.29%; viability, T/C [27]: 5.41%; viability, T/C [28]: 3.12%; viability, T/C [15]: 1.13%; viability, T/C [16]: 1.28%; viability, T/C [29]: 3.31%; viability, T/C [30]: 1.8%; viability, T/C [19]: 0.7%; viability, T/C [20]: 0.47%"
CC(C)CC(NC(=O)CNC(=O)c1cc(Cl)ccc1Cl)B1OC(=O)CC(CC(=O)O)(C(=O)O)O1 (stereo not given) + CC(C)NCC(C(=O)N1CCN(c2ncnc3c2C(C)CC3O)CC1)c1ccc(Cl)cc1,15.9,< 0.316,< 0.316,< 0.316,< 0.316,4.01,0.25,0.36,0.13,0.42,0.12,0.53,0.12,0.23,0.32,82.4,81,30.2,25,10.2,"viability, T/C [31]: 103%; viability, T/C [32]: 93.4%; viability, T/C [33]: 33.5%; viability, T/C [34]: 22.1%; viability, T/C [35]: 10.5%; viability, T/C [36]: 10%; viability, T/C [26]: 10.8%; viability, T/C [37]: 5.98%; viability, T/C [38]: 6.67%; viability, T/C [27]: 6.96%; viability, T/C [28]: 6.39%; viability, T/C [39]: 5.15%; viability, T/C [40]: 4.38%; viability, T/C [29]: 4.75%; viability, T/C [30]: 4.63%"
COC1CC2CCC(C)C(O)(O2)C(=O)C(=O)N2CCCCC2C(=O)OC(C(C)CC2CCC(OCCO)C(OC)C2)CC(=O)C(C)C=C(C)C(O)C(OC)C(=O)C(C)CC(C)C=CC=CC=C1C (stereo not given) + CC(C)NCC(C(=O)N1CCN(c2ncnc3c2C(C)CC3O)CC1)c1ccc(Cl)cc1,14.5,0.479,< 0.316,< 0.316,< 0.316,49.7,40.8,28.6,28.9,18.3,13.7,9.91,12.8,6.79,6.34,61.8,49.9,33.7,31.7,16.4,"viability, T/C [31]: 90.9%; viability, T/C [32]: 76.7%; viability, T/C [33]: 59%; viability, T/C [34]: 33.4%; viability, T/C [35]: 23.3%; viability, T/C [36]: 19.9%; viability, T/C [26]: 16%; viability, T/C [37]: 12.9%; viability, T/C [38]: 12.5%; viability, T/C [27]: 12.6%; viability, T/C [28]: 12.7%; viability, T/C [39]: 7.9%; viability, T/C [40]: 7.4%; viability, T/C [29]: 6.49%; viability, T/C [30]: 6.32%"
